Assay results as given in patent US20030211170A1, “Use of physiologically acceptable vanadium compounds, salts and complexes” (GHO'ST HOLDING B.V., priority 1997, published 2003).

Tests used:
[1] = system: hearts of phenobarbital anaesthetized rats (myocardial tissue); test: Infarct size after 60 minutes coronary artery occlusion and 180 minutes of reperfusion in anaesthetized rats; format: in vivo, rat; conditions: normothermia (36.5-37.5° C.), 3.3 mg/kg bodyweight i.v. bolus in 10 minutes, 25 minutes prior to CAO, 60 min CAO, 180 min reperfusion, mean ± standard error margin, n=6, P<0.001 vs control (69±2%)
Method: Area at risk (AR) and infarcted area (IA) were determined in hearts of phenobarbital anaesthetized rats after 60 minutes coronary artery occlusion (CAO) and 180 minutes of reperfusion. […] The mean AR expressed as percentage of the left yentricle was not different between the control and the experimental group (42±2% and 42±3%, respectively).

[2] = system: deep burn wounds (skin/dermis structures); test: Deep burn wound model in the Yorkshire pig; format: in vivo, Yorkshire White; conditions: administered intravenously in a single dose
Description: The Yorkshire pig has been chosen as the experimental animal because of all animal species this domestic pig seems to be the one with morphological and functional skin characteristics nearest to human skin and so best fulfils the requirements of a model for human skin. In basic architecture it resembles human skin in the relative thickness of the epidermis and dermis, the presence of epidermal ridges, a distinct dermal papillary layer and a deep layer of subdermal fat. Compared to human the elastic fibre content of porcine dermis is relatively low, but higher than in any other species. […] Studies on the proliferation rate of porcine epidermis show parallels with those of humans. The keratinous proteins are similar. Unlike the skin of rodents, the follicular pattern in pigs and humans is relatively sparse and arranged as single hairs or in groups of two or three follicles. […] The regulation of body temperature by the skin is more evident in humans than in the pig. In the skin of the pig no eccrine glands are found. It does have apocrine glands, but their role in thermoregulation remains debatable. The vascular anatomy of pig skin consists of a three layered network; lower, mid-dermal and sub epidermal. The size, orientation and distribution of the vessels are strikingly similar to human skin, but it does differ from humans in that the sub epidermal network is less dense. The vascularisation of the lower region of the follicle corresponds to that in humans. The healing of deep dermal burns, which depends on this phenomenon, might also be analogous. Studies on the thermal properties of porcine skin as a function of depth have been performed by measuring the tissue water content.
Protocol 1a: Twelve identical deep burn wounds were inflicted in each animal. The animal model used is developed in the Burn Research Institute (Beverwijk, The Netherlands) and is a standard for all of the experimental burn wound research. The model is also accepted by the animal experimental commission of the University of Amsterdam. […]

Compound: Cc1occc(=O)c1[O-].Cc1occc(=O)c1[O-].[O]=[V+2] [bis(maltolato)oxovanadium(IV)]
- IA/AR ratio (infarcted area / area at risk) [1]: 45±3%
- contractions of scars [2]: considerably reduced
- healing of burn wounds [2]: faster healing
- structures present in the dermis (deep vascular plexus, hair-adnexes (sebaceous glands), sweat glands) [2]: protected
